According to patent publication US12617818B2, “Compositions and methods for modulating myosin subfragment-2 coiled coil stability and methods for using them” (UNIVERSITY OF NORTH TEXAS, priority 2020, dated 2026):
Entries after “also recorded” stand apart in the source; their conditions may differ.

Tests used:
Format in all cases: biochemical
[1] = biological target: T1, cardiac muscle myosin S2 peptide (MYH7) (Homo sapiens, UniProt P12883); assay: Gravitational force spectroscopy (GFS), uncoiling of cardiac myosin S2 peptide dimer; conditions: for Force required to uncoil S2 molecule: length 10 nm, in presence of the anti-S2 peptide, ± SEM
T1 construct: host or cells: chemical synthesis
T1 sequence (P12883 912-947 limits assumed): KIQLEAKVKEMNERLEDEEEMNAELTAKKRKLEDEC
Description: (§1) 3-aminopropyltriethoxysilane, acetone, coupling buffer (0.01 M pyridine in water with pH 6.0), 5% glutaraldehyde, quenching solution (1 M glycine in water with pH 7.0), blocking buffer (0.01 M Tris, 0.1% sodium azide, 0.1% bovine serum albumin, 0.15 M sodium chloride, and 0.001 M ethylenediaminetetraacetic acid with pH 7.0), wash buffer (0.01 M Tris, 0.1% sodium azide, 0.15 M sodium chloride, and 0.001 M ethylenediaminetetraacetic acid with pH 7.0) low salt buffer (0.1 M potassium chloride, 0.02 M imidazole, 5 mM magnesium chloride, with pH 7.0), 1-ethyl-3-(3-dimethyaminopropyl) carbodiimide, N-hydroxysuccinamide, iodoacetamide-succinimidyl ester, 8M urea solution (50 mM imidazole and 0.1 mM tris (2-carboxyethyl) phosphine with pH 7.0) monodisperse silica beads, glass slides, glass coverslips, vacuum grease, rabbit skeletal myosin, purified actin (G-actin), 1 μM human β-cardiac myosin S2 peptide, 1 μM human β-cardiac mutants myosin S2 peptide (E930del and E924K), 1 μM human skeletal myosin S2 peptide, 1 μM human smooth myosin S2 peptide, stabilizer peptide, and destabilizer peptide. A light microscope with an objective lens of 10× was mounted on an alt-azimuthal mount. A digital video camera of Sony, XCD-V60 was replaced with the ocular lenses. Extension springs on steel bracket held the alt-azimuthal mount suspended.
(§2) Gravitational force spectroscopy (GFS), is a single molecule force spectroscopy that utilizes gravitational force to measure absolute length of a single molecule at the given force calculated by the density of the bead suspending the molecule. This technique was discovered and developed in Root lab, which measures the forces in piconewton and sub-piconewton levels. Other than absolute length of a molecule, GFS measures force range required to uncoil, stretch or extend the molecule yielding a force-distance profile for the suspended molecule. Besides that, based on the force-distance profile, number of amino acids within the molecule can be calculated. […] The GFS allowed to test the flexibility or stability of a single molecule of myosin S2 peptide and also for the S2 peptides treated with anti-S2 peptides. Flexibility of myosin S2 is not dependent on assembly myosin as a thick filament or myosin in its single molecule form. The flexibility of myosin S2 region was reported to be similar in single molecule form or myosin in a thick filament assembly thus it could be conceived that the changes seen on flexibility of myosin S2 in presence of anti-S2 peptides would correlate to changes in myosin S2 flexibility for myosin in a thick filament form (Singh et al., 2018). The schematic diagram of GFS is shown below (schematic diagrams of GFS which has two modes: (FIG. 15) free-fall mode, (FIG. 16) rotational mode.
GFS set up assembly contains a light microscope that is horizontally mounted on an alt-azimuthal which is suspended with help of extension springs on a steel bracket. To capture both images and videos of suspended molecule, a digital video camera has been placed instead of the ocular lenses. The molecule of interest is tethered between an immobile edge of glass coverslip placed on a glass slide and mobile silica or glass bead. Slide with the molecule of interest in inserted into the light microscope component of GFS. The bead with molecule of interest is imaged through the microscope and then oriented to the direction of gravity vector to allow the maximal gravitation force exerted on to the bead. GFS has two modes, one is called rotational mode or an equilibrium mode which measures the absolute length of a single molecule and the second one is called free fall mode which measures the force required to unwind, uncoil, stretch or extend the molecule of interest.
Free fall mode, another measurement variant of GFS which allows the user to get a force distance profile on a single molecule experiencing the gravitational force. […]

[2] = biological target: T2, smooth muscle myosin S2 peptide (MYH11) (Homo sapiens, UniProt P35749); assay: GFS, uncoiling of smooth myosin S2 peptide dimer; conditions: for impact on mechanical stability of smooth muscle myosin S2 peptide: force distance curve vs control; for Force required to uncoil S2 molecule: length 10 nm, in presence of the anti-S2 peptide, ± SEM
T2 construct: host or cells: chemical synthesis
T2 sequence (P35749 with tags, fused parts or gaps): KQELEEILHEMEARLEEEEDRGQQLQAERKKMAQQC
Description: as §1
as §2, with “The flexibility of myosin S2 region was reported to be similar in single molecule form or myosin in a thick filament assembly thus it could be conceived that the changes seen on flexibility of myosin S2 in presence of anti-S2 peptides would correlate to changes in myosin S2 flexibility for myosin in a thick filament form (Singh et al., 2018). The schematic diagram of GFS is shown below (schematic diagrams of GFS which has two modes: (FIG. 15) free-fall mode, (FIG. 16) rotational mode.” left out
Free fall mode, another measurement variant of GFS which allows the user to get a force distance profile on a single molecule experiencing the gravitational force. […] During the free fall mode, GFS has a single molecule which is suspended within an immobile edge and mobile bead will now experience the variable force which would be calculated by the product of mass of the bead and the acceleration of the GFS. […]

[3] = biological target: skeletal muscle myosin S2 peptide (MYH2) (Homo sapiens, UniProt Q9UKX2); assay: GFS, uncoiling of skeletal myosin S2 peptide dimer; design: host or cells: chemical synthesis; conditions: for Force required to uncoil S2 molecule: length 10 nm, in presence of the anti-S2 peptide, ± SEM
Description: as §1, §2
Free fall mode, another measurement variant of GFS which allows the user to get a force distance profile on a single molecule experiencing the gravitational force. Free fall mode allows a variable force by the virtue of gravity to be exerted on a single molecule. The GFS setup, light microscope with mounted camera on spring on alt-azimuthal platform, can be dropped. The start of free-fall mode force applied to the bead is zero or close to zero. […] As the platform goes towards equilibrium, trace of the acceleration decays. During the free fall mode, GFS has a single molecule which is suspended within an immobile edge and mobile bead will now experience the variable force which would be calculated by the product of mass of the bead and the acceleration of the GFS.
The product of the GFS acceleration and the mass of the bead will provide a force trace for the single molecule tethered between the immobile edge and mobile bead. The image processing would provide distance trace for the single molecule experiencing the free fall by the GFS. When this force trace is aligned with distance trace will yield the extension or the stretch experience by the single molecule under variable forces. […]

Chain of skeletal muscle myosin S2 peptide (MYH2) (Q9UKX2 918-953 limits assumed): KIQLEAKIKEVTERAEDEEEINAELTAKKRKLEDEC

SMILES | Force required to uncoil S2 molecule [1] | Force required to uncoil S2 molecule ([1]; listed as stabilizer) | increase of force required to uncoil the coiled coil ([1]; vs absence of anti-S2 peptide) | impact on mechanical stability of smooth muscle myosin S2 peptide [2] | Force required to uncoil S2 molecule [2] | Force required to uncoil S2 molecule [3] | increase of force required to uncoil the coiled coil ([3]; vs absence of anti-S2 peptide) | Force required to uncoil S2 molecule ([1]; listed as destabilizer) | decrease of force required to uncoil the coiled coil ([1]; vs absence of anti-S2 peptide) | Force required to uncoil S2 molecule ([3]; listed as destabilizer peptide) | decrease of force required to uncoil the coiled coil ([3]; vs absence of anti-S2 peptide)
C[C@H](NC(=O)[C@H](CCCCN)NC(=O)[C@H](Cc1ccccc1)NC(=O)[C@H](CCCCN)NC(=O)[C@H](CCCCN)NC(=O)[C@H](CCCCN)NC(=O)[C@H](CCCCN)NC(=O)[C@H](CCCCN)NC(=O)[C@H](CCCCN)NC(=O)[C@H](CCCCN)NC(=O)[C@@H](N)CCCCN)C(=O)N[C@@H](CCCCN)C(=O)N[C@@H](CCCCN)C(=O)N[C@@H](CCCCN)C(=O)N[C@@H](CCCCN)C(=O)N[C@@H](CCCCN)C(=O)N[C@@H](CCCCN)C(=O)O [Stabilizer] | 1.55E+00 ± 1.46E−01 pN | 1.55±1.46×10^−1 pN | 1.80 times | do not have an impact; also recorded: no effect | 4.96E−01 ± 7.60E−02 pN | 6.28E−01 ± 4.32E−02 pN | 1.40 times |  |  |  | 
CSCC[C@H](NC(=O)[C@H](CCC(=O)O)NC(=O)[C@H](CCCNC(=N)N)NC(=O)[C@H](CCC(=O)O)NC(=O)[C@H](CC(=O)O)NC(=O)[C@H](CCC(=O)O)NC(=O)[C@H](CC(C)C)NC(=O)[C@H](CCCNC(=N)N)NC(=O)[C@H](CCC(=O)O)NC(=O)[C@H](CC(N)=O)NC(=O)[C@H](CCSC)NC(=O)[C@@H](N)CCC(=O)O)C(=O)N[C@@H](CCCCN)C(=O)N[C@@H](C)C(=O)N[C@@H](CCC(=O)O)C(=O)N[C@@H](CC(C)C)C(=O)N[C@H](C(=O)N[C@@H](C)C(=O)N[C@@H](CCCCN)C(=O)O)[C@@H](C)O [Destabilizer] | 4.36E−01 ± 3.30E−02 pN |  |  | do not have an impact | 4.51E−01 ± 2.98E−02 pN | 1.84E−01 ± 4.00E−02 pN |  | 4.36×10^−1±3.30×10^−2 pN | 1.98 times | 1.84×10^−1±4.00×10^−2 pN | 2.45 times
